Patent US11576987B2, “Compositions and methods of treating melanoma” (UNIVERSITY OF IOWA RESEARCH FOUNDATION, priority 2016, dated 2023)
Positions of bridges follow the written chain, without caps; N, C: chain ends. Non-standard residues stand in square brackets, D forms with d. Residues, ends and D or L forms follow the SMILES beside them. Groups on a side chain read outwards from the residue. Triazole bridges read from a SMILES are 1,4-linked. *: point of attachment. DOTA = O=C(O)CN1CCN(CC(=O)O)CCN(CC(=O)*)CCN(CC(=O)O)CC1; Lys(N3) = [N-]=[N+]=NCCCC[CH](N)C(=O)O; Nle = CCCC[CH](N)C(=O)O; Pra = C#CC[CH](N)C(=O)O; PEG2 = NCCOCCOCCC(=O)O

Experiments:
MCR1 expression = assay: Pharmacological enhancement of MCR1 expression in human melanoma cells by drug incubation; assay type: cell-based; conditions: for MCR1 expression: metastatic melanoma cells
Description: Melanoma if detected early can be cured by surgery, but metastatic melanoma is lethal. New therapies (e.g., immunotherapy; BRAF inhibition, BRAFi) and combinations extend life, but low response rates, acquired drug resistance, and serious side effects are major challenges to improving outcomes for disseminated disease (5 y survival 17%). Peptide-based radionuclide therapy targeted to the melanocortin-receptor type 1 (MCR1-RT) has long been considered a promising alternative; and MCR1-RT has achieved complete responses in mouse models (B16). However, MCR1 expression is heterogeneous/low in human melanoma, and as a result, no previous MCR1-RT study has employed successfully human melanoma cell xenografts. […] This introduces innovative Pb-specific chelator combined with a “click-cyclized” peptide (PSC-C-MCR1) to improve tumor:kidney ratio of radionuclide uptake 7-fold. An effective therapy for metastatic melanoma is developed that combines MCR1-RT with pharmacological agents (PBA; BRAFi/MEKi; HDACi) that enhance MCR1 expression.
Melanoma is the fastest growing cancer incidence in the United States. Surgery combined with radiation can be curative at early stages. However, metastatic melanoma is almost uniformly fatal (5-yr survival 17%). Recent breakthrough targeted MAPKi therapies (e.g., BRAFi) and immunotherapies (e.g., PD-1 inhibitors) have improved outcomes, but low response rates, acquired drug resistance, and adverse side effects limit quality of life for metastatic melanoma patients. For example, approval of immune-checkpoint inhibitor ipilimumab was based on an improvement in overall survival of only 3.7 months (overall response <15%). Combination immunotherapies have improved response (up to 61%), but grade 3/4 adverse events (up to 55%) often lead to therapy discontinuation (up to 36%). For targeted therapies, BRAF inhibitor vemurafenib was approved based on overall survival at 6 months of 84% vs 64% in the control arm (dacarbazine). Combining BRAFi with MEK inhibitors (MEKi) has led to modest improvements, yet recurrence is virtually inevitable. The mechanisms of acquired drug resistance are complex, and include altered/alternative oncogenic pathways; tumor heterogeneity; and enhanced DNA repair. Melanocortin-receptor type 1 targeted radionuclide therapy (MCR1-RT) has long been considered a promising alternative treatment for melanoma; and MCR1-targeted α-particle therapy (^212Pb) has achieved complete responses in mice bearing mouse (B16) tumors that highly express MCR1. However, these studies have been confined primarily to mouse melanoma (B16) cells because MCR1 expression is heterogeneous/low in human melanoma.
Combination therapies for metastatic melanoma are emerging as common practice (e.g., BRAFi plus MEK; and combination immunotherapies), but melanoma almost invariably develops resistance. MCR1-RT has long been considered a promising alternative, but previous therapy studies have been limited to the use of B16 mouse melanoma cells that highly express the MCR1 protein, because native MCR1 expression in human melanoma is heterogeneous/low.

MC1R expression = assay: Real-time PCR analysis of MC1R expression in melanoma cells; assay type: cell-based, human; conditions: substantiated by flow cytometry and radiopeptide binding
Experimental: FIG. 10. Real-time PCR analysis of MC1R expression in A2058 and MEWO melanoma cells. A2058 cells were exposed to BRAFi GSK2118436, MEKi GSK1120212 and HDACi PBA for 24 h. Similarly, MEWO cells were treated with PBA and SAHA. Total RNA was isolated and reverse transcripted to cDNA. Real-time PCR was performed using 50 ng of each cDNA sample with labeled primer VIC-MC1R and FAM-NADPH. mRNA fold changes were calculated by ΔΔCt method and expressed as (n=3; Mean±SEM).
qPCR measurements are included to measure the change in MCR1 mRNA with changes in the concentration and incubation time for each drug and combinations (FIG. 10). These experiments are carried out as in FIG. 10 according to manufacturers' protocols, cells are seeded into 6-well plates until ˜80% confluent. After drug treatments, total RNA is isolated (Qiagen RNeasy Mini Kit). 1 μg of total RNA from each cell sample is used for reverse transcription using a high capacity reverse transcription kit (Applied Biosystem). cDNA samples are kept at −80° C. until use. Upon use, cDNA templates are employed in the qRT-PCR using a Taqman Gene Expression Assay for human MC1R (Assay ID: Hs00267167_s1). Human 18S (Assay ID: Hs99999901_s1) and human GAPDH (Assay ID: Hs03929097_g1) are used as housekeeping gene controls. […] Reactions are carried out in Applied Biosystem 7900HT. mRNA level is calculated by comparative ΔΔCt method.

[1] = tested on: BRAFi-resistant A375VR cells; assay: Clonogenic survival of BRAFi-resistant melanoma cells; assay type: cell-based, human; conditions: 5 μM vemurafenib in the absence of PBA
Experimental: FIGS. 13A-13B. PBA treatment promotes cell death of BRAFi-resistant metastatic melanoma and upregulates MCR1 expression in a time dpe. (A) BRAFi-resistant A375VR cells were incubated with 5 μM vemurafenib in combination with ER-stress-relieving drug 4-PBA for up to 6 days. […] (B) Flow cytometry analysis of MCR1 expression in A2058 and A375 malignant melanoma cells. Cells were treated with 3 mmole 4-PBA for 4 h and 24 h (n=3). The treated and untreated (control) cells were stained with anti-MC1R-phycoerythrin (PE) monoclonal antibody conjugate. Fluorescence intensity was corrected by auto-fluorescence of cells without staining and data were expressed as relative fluorescence intensity (IF) (vs. control)±SD.
Accumulation of misfolded-proteins causes upregulation and detachment of ER resident protein GRP78 from ER sensors proteins—activating the unfolded protein response (UPR) and downstream signaling pathways (including autophagy). […] Thus, the potential for a pharmacological treatment that would sensitize BRAFi-resistant cells to BRAFi by reducing ER-stress was considered. BRAFi-resistant A375VR melanoma cells were incubated with BRAFi vemurafenib alone and in combination with ER-stress relieving PBA.

metastatic melanoma = conditions: patients, cited from earlier work
[2] = tested on: B16 mouse metastatic melanoma tumor model; conditions: 60 m post injection; cited from earlier work
[3] = Tumor and kidney accumulation of click cyclized MCR1 peptide in mouse studies; assay type: in vivo; conditions: kidney, iv, 90 min. post i.v. injection
Description: (§1) The peptide backbone selected for the proposed investigation is based on a variant that was introduced previously with the addition of new evidence for improved internalization with the inclusion of a short polyethylene glycol linker between the chelator and the peptide backbone (FIG. 17). […] This peptide performance represents a 7-fold improvement in tumor:kidney ratio compared to the Re-cyclized peptide used previously. The use of the Re-cyclized peptide is for comparison to the previously published alpha-particle MCR1-targeted therapy study (using B16 mouse melanoma tumors). (Leachman S A, Cassidy P B, Chen S C, Curiel C, Geller A, Gareau D, Pellacani G, Grichnik J M, Malvehy J, North J, Jacques S L, Petrie T, Puig S, Swetter S M, Tofte S, Weinstock M A. Methods of Melanoma Detection. Cancer Treat Res. 2016; 167:51-105.) Thus, the DOTA-C-MCR1 (published previously) and new PSC-C-MCR1 peptides shown in FIG. 17 are used to take advantage of the observed improved tumor:kidney ratio.
(§2) Preliminary data support the hypothesis that co-injection of PBA with [^203Pb]MCR1-targeted peptides can reduce kidney accumulation of the radiopeptide (FIGS. 14A-B), while improving tumor accumulation in mice bearing human metastatic melanoma tumors (FIG. 14B imaging; FIGS. 15A-B therapy). […]

[4] = tested on: B16 mouse metastatic melanoma tumor model; assay: as above; assay type: in vivo; conditions: i.v. injection
Description: as §1, §2

## O=C(CCCCCCC(=O)Nc1ccccc1)NO [Vorinostat]
MCR1 expression; human melanoma cells, incubation with drug
  enhancement of MCR1 expression: up to 12 fold
MC1R expression
  MCR1 expression by RT-PCR: Enhanced expression of MCR1

## CC(C)(C)c1nc(-c2cccc(NS(=O)(=O)c3c(F)cccc3F)c2F)c(-c2ccnc(N)n2)s1 [dabrafenib]
MCR1 expression
  MCR1 expression: upregulate MCR1 expression

## CCCS(=O)(=O)Nc1ccc(F)c(C(=O)c2c[nH]c3ncc(-c4ccc(Cl)cc4)cc23)c1F [vemurafenib]
[1]
  clonogenic survival: No change in clonogenic survival
Metastatic melanoma; approval trial
  overall survival at 6 months: 84%
Metastatic melanoma; metastatic melanoma
  slowing of tumor progression: about 5.3 months
MCR1 expression
  MCR1 expression: upregulate MCR1 expression

## O=C(c1ccc(F)c(F)c1Nc1ccc(I)cc1F)N1CC(O)([C@@H]2CCCCN2)C1 [cobimetinib]
MCR1 expression
  MCR1 expression: upregulate MCR1 expression

## CCCCC(NC(C)=O)C(=O)NC1Cc2cn(nn2)CCCCC(C(=O)NC(CCCCNC(=O)CCOCCOCCNC(=O)CN2CCN(CC(=O)O)CCN(CC(=O)O)CCN(CC(=O)O)CC2)C(N)=O)NC(=O)C(Cc2c[nH]c3ccccc23)NC(=O)C(CCCNC(=N)N)NC(=O)C(Cc2ccccc2)NC(=O)C(Cc2c[nH]cn2)NC1=O (stereo not shown) [[^68Ga]DOTA-C-MCR1, metal not drawn] (Ac-[Nle][Pra]HFRW[Lys(N3)]K([PEG2-DOTA])-NH2; triazole 2-7; configuration not given here)
[2]
  tumor:kidney ratio: 3.4
[3]
  tissue uptake at 1.5 h: < 5 %ID/g
[4]
  injected dose per gram (tumor): up to 16 % ID/g

## ipilimumab: immune-checkpoint inhibitor
Metastatic melanoma; basis of approval
  improvement in overall survival: 3.7 months
Metastatic melanoma
  overall response: < 15%
